Measurements as given in paper PMC9851200, “Multiparameter phenotypic screening for endogenous TFEB and TFE3 translocation identifies novel chemical series modulating lysosome function” (Autophagy, 2022).

Tests used:
[1] = biological target: T1, SRPK1 (Homo sapiens, UniProt Q96SB4); assay: KiNativ in-cell kinase binding, SRPK1; details: SH-SY5Y cells, Labeling Site Lys2
T1 construct: endogenous in cells; host or cells: SH-SY5Y
Text: (§1) As KINOMEscan is an in vitro assay, and as different cell types have variable kinase expression profiles we sought to determine the kinase binding profile in our SH-SY5Y TFEB-relocalization cell model. […] Bound kinases were pulled down and analyzed by mass spectrometry to determine the in situ kinase binding profile for each compound.

[2] = biological target: T2, TLK1 (Homo sapiens, UniProt Q9UKI8); assay: KiNativ in-cell kinase binding, TLK1; details: SH-SY5Y cells, Labeling Site Lys2
T2 construct: endogenous in cells; host or cells: SH-SY5Y
Text: as §1

[3] = biological target: kinases (KINOMEscan panel) (Homo sapiens, UniProt Q9H4A3); design: method as in original PKIS2 published data; details: Published KINOMEscan; ref original PKIS2 published data; cited from earlier work
[4] = biological target: T3, kinases (KINOMEscan panel) (Homo sapiens, UniProt Q8WTQ7); design: method as in original PKIS2 published data; details: kinase GRK7; Published KINOMEscan; ref original PKIS2 published data; cited from earlier work
T3 sequence (Q8WTQ7 1-553): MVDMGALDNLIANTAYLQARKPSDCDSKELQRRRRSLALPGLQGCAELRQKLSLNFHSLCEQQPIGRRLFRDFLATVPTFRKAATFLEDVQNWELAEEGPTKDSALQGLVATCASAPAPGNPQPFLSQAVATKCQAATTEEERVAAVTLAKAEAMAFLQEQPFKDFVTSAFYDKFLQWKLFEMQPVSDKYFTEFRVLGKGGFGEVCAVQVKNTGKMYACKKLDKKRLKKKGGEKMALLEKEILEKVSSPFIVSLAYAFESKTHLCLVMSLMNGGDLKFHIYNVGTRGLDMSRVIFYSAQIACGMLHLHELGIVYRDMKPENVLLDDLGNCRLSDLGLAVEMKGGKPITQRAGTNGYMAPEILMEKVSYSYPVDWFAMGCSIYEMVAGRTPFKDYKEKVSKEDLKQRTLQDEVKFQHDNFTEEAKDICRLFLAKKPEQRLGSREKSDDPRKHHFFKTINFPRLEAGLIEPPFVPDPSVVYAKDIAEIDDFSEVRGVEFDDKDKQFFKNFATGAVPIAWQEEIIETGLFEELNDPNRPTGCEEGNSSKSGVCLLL

[5] = biological target: kinases (KINOMEscan panel) (Homo sapiens, UniProt Q86Y07); design: method as in original PKIS2 published data; details: Published KINOMEscan; ref original PKIS2 published data; cited from earlier work
[6] = biological target: kinases (KINOMEscan panel) (Homo sapiens, UniProt P49841); design: method as in original PKIS2 published data; details: Published KINOMEscan; ref original PKIS2 published data; cited from earlier work
[7] = biological target: kinases (KINOMEscan panel) (Homo sapiens, UniProt P68400); design: method as in original PKIS2 published data; details: CSNK2A1; Published KINOMEscan; ref original PKIS2 published data; cited from earlier work
[8] = biological target: kinases (KINOMEscan panel) (Homo sapiens, UniProt Q9HC98); design: method as in original PKIS2 published data; details: kinase NEK6; Published KINOMEscan; ref original PKIS2 published data; cited from earlier work
[9] = biological target: T4, kinases (KINOMEscan panel) (Homo sapiens, UniProt Q8TDC3); design: method as in original PKIS2 published data; details: BRSK1; Published KINOMEscan; ref original PKIS2 published data; cited from earlier work
T4 sequence (Q8TDC3 1-778): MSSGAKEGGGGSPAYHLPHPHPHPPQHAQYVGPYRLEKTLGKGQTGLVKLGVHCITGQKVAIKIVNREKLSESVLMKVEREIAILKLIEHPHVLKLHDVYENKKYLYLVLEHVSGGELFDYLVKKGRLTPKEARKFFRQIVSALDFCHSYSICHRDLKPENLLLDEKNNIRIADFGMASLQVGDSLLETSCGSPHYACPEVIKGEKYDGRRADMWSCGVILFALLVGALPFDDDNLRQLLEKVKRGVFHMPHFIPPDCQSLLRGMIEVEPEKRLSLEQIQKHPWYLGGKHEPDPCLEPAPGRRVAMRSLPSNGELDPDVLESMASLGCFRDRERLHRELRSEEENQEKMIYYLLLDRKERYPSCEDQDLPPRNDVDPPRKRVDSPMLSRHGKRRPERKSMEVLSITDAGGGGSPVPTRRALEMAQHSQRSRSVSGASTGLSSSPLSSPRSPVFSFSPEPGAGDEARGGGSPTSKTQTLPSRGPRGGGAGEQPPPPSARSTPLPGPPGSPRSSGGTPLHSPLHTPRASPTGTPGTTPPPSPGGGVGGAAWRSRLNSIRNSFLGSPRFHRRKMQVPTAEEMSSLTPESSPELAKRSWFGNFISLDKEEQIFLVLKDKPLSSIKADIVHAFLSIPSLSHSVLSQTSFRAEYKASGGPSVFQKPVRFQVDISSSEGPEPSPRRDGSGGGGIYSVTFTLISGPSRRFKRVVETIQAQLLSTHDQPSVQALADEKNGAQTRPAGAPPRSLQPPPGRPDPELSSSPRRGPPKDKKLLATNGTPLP

[10] = biological target: kinases (KINOMEscan panel) (Homo sapiens, UniProt Q9H3Y6); design: method as in original PKIS2 published data; details: Published KINOMEscan; ref original PKIS2 published data; cited from earlier work
[11] = biological target: kinases (KINOMEscan panel) (Homo sapiens, UniProt P27037); design: method as in original PKIS2 published data; details: ACVR2A; Published KINOMEscan; ref original PKIS2 published data; cited from earlier work
[12] = biological target: kinases (KINOMEscan panel) (Homo sapiens, UniProt P50750); design: method as in original PKIS2 published data; details: kinase CDK9; Published KINOMEscan; ref original PKIS2 published data; cited from earlier work
[13] = biological target: MINK1/MINK (Homo sapiens, UniProt Q8N4C8); format: binding
[14] = biological target: kinases (KINOMEscan panel) (Homo sapiens, UniProt Q8WU08); format: binding
[15] = biological target: kinases (KINOMEscan panel) (Homo sapiens, UniProt O95382); format: binding
[16] = biological target: kinases (KINOMEscan panel) (Homo sapiens, UniProt O94768); format: binding
[17] = biological target: kinases (KINOMEscan panel) (Homo sapiens, UniProt P51812); format: binding
Sequence of kinases (KINOMEscan panel) (Homo sapiens, UniProt P51812) (P51812 whole entry): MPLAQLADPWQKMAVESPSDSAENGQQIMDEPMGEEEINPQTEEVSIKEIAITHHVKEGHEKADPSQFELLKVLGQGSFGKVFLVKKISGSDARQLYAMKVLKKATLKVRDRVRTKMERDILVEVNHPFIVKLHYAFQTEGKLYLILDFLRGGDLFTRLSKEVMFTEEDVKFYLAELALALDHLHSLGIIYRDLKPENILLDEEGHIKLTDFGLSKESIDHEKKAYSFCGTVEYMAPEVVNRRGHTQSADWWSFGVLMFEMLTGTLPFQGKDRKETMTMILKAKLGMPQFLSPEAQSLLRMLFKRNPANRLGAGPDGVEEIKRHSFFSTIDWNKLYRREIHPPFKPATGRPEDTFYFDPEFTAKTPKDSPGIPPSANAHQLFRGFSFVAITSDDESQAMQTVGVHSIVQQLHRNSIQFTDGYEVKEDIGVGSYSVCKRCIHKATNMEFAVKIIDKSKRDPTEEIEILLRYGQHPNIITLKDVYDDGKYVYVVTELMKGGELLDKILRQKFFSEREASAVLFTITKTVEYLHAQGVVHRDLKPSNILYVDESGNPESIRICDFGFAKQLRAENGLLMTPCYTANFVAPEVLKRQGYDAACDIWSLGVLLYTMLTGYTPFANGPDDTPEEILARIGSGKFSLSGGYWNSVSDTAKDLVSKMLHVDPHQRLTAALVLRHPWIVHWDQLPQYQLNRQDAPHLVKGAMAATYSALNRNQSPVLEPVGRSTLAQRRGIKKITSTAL

T1 sequence (Q96SB4 whole entry): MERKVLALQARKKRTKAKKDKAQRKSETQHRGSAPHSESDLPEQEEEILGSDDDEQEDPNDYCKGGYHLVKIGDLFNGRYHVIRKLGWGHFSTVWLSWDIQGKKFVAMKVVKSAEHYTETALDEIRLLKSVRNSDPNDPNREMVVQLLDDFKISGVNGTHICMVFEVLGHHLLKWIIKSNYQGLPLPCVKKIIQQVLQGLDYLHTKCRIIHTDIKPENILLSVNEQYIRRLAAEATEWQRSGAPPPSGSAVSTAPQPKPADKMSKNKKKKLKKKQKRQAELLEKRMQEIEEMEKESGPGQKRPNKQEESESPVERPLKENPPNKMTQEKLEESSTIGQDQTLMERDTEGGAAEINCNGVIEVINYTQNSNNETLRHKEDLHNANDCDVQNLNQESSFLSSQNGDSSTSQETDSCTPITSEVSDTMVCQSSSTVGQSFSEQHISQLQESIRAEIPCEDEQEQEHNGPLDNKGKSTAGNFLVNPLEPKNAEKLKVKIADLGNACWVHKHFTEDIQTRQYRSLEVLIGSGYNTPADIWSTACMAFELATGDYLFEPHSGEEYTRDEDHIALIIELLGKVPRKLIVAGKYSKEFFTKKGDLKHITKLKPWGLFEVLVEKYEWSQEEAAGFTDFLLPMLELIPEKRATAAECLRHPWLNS
Sequence of MINK1/MINK (Q8N4C8 whole entry): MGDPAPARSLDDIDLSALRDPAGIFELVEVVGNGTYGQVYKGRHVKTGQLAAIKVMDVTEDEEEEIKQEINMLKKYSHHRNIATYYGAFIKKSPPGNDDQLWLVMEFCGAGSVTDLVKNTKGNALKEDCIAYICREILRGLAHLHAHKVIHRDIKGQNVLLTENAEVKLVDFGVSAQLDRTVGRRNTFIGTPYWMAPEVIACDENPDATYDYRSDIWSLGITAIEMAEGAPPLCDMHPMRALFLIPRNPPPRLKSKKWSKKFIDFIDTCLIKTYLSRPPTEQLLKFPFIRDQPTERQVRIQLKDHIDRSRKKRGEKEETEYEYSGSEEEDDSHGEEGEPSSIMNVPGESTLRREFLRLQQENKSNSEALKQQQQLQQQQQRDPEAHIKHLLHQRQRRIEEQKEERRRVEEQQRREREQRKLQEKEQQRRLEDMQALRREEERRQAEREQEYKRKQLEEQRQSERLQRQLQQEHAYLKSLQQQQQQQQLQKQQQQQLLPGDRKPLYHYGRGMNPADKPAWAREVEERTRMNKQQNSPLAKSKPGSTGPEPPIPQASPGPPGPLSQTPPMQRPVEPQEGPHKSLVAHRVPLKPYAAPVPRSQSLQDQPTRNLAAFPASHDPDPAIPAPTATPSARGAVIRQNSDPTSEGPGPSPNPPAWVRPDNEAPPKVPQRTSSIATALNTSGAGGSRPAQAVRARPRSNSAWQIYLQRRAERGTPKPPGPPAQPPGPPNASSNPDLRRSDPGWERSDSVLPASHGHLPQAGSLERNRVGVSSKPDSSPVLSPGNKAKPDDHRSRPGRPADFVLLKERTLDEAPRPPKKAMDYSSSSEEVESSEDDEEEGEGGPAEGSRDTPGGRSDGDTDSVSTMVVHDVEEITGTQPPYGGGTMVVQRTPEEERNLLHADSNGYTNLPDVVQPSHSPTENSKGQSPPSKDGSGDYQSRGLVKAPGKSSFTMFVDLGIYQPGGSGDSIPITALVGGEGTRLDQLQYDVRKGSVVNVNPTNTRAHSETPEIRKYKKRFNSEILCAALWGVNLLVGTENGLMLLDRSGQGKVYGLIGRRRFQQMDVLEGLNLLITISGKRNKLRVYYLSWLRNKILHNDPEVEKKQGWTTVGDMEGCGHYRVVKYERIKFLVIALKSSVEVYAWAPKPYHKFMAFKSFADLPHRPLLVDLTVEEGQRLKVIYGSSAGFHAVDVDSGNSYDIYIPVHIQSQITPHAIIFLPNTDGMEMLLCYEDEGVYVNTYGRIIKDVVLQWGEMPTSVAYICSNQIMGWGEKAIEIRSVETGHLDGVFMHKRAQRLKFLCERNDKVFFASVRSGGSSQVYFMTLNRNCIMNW
Sequence of kinases (KINOMEscan panel) (Homo sapiens, UniProt P68400) (P68400 whole entry): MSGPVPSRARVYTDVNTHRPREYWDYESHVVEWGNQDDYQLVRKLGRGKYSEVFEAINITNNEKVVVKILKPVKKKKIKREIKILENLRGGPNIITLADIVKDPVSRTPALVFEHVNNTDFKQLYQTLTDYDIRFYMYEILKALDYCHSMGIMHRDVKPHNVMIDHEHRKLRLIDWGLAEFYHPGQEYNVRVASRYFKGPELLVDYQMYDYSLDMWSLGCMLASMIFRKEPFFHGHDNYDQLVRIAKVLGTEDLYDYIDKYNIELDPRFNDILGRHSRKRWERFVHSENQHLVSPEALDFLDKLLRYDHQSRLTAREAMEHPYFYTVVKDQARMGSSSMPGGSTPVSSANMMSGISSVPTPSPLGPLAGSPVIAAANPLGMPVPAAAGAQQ
Sequence of kinases (KINOMEscan panel) (Homo sapiens, UniProt Q86Y07) (Q86Y07 whole entry): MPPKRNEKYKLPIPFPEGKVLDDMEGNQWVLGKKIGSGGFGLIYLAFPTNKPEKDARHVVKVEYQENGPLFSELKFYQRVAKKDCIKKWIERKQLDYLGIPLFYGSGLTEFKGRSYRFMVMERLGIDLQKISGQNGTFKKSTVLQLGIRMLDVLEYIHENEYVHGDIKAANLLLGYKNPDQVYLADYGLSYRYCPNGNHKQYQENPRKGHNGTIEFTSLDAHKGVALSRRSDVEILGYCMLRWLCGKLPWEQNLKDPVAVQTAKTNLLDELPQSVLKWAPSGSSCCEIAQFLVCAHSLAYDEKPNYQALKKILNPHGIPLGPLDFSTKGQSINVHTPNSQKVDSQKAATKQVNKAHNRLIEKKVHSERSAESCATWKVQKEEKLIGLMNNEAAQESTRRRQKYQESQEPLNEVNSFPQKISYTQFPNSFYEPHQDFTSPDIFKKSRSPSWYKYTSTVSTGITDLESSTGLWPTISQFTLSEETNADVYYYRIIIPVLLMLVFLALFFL
Sequence of kinases (KINOMEscan panel) (Homo sapiens, UniProt P49841) (P49841 whole entry): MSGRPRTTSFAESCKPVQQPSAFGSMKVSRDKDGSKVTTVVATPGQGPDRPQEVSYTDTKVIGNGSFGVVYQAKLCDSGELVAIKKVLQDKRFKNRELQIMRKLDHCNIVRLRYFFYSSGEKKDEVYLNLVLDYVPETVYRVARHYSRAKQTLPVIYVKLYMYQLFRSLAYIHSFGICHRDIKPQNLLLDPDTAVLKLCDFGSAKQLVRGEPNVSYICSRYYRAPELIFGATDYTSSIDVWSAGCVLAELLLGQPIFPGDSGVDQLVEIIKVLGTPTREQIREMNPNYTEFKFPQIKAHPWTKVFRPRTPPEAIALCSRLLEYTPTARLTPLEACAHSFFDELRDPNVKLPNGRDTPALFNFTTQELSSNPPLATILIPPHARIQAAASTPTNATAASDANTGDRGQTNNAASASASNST
Sequence of kinases (KINOMEscan panel) (Homo sapiens, UniProt Q8WU08) (Q8WU08 whole entry): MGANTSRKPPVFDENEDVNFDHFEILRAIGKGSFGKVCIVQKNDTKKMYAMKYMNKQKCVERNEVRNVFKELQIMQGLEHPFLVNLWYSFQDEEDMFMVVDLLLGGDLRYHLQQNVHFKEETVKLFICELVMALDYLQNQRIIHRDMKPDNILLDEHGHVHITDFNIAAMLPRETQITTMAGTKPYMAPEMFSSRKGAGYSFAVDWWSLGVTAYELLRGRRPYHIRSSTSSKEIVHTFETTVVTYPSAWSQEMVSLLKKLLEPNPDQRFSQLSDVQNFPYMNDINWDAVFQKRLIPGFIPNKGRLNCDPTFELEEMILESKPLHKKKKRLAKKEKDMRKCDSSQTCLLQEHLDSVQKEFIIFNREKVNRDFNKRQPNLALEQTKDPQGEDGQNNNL
Sequence of kinases (KINOMEscan panel) (Homo sapiens, UniProt Q9HC98) (Q9HC98 whole entry): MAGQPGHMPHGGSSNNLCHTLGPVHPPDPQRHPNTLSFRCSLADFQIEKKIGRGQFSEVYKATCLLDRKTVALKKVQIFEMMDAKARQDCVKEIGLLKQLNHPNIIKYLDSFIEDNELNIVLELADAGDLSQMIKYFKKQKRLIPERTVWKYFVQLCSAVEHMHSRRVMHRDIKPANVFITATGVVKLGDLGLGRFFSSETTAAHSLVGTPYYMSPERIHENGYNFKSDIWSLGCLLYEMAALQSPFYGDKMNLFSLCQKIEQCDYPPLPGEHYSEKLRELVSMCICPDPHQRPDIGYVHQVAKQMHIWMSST

## Cc1cccc(-c2nc(Nc3ccc4ncsc4c3)c3ccccc3n2)n1 [NK140]
[1]
  inhibition at 2 µM: 67.9%
[2]
  inhibition at 2 µM: 48.9%

## Cc1cccc(-c2nc(Nc3ccncc3)c3ccccc3n2)n1 [NK215]
[3]
  KINOMEscan WNK1: 0
[4]
  KINOMEscan GRK7: 0
[5]
  KINOMEscan VRK2: 0
[6]
  KINOMEscan GSK3B: 0
[7]
  KINOMEscan CSNK2A1: 0
[8]
  KINOMEscan NEK6: 21
[9]
  KINOMEscan BRSK1: 0
[10]
  KINOMEscan SRMS: 0
[11]
  KINOMEscan ACVR2A: 24
[12]
  KINOMEscan CDK9: 0

## Cc1cccc(-c2nc(N(C)c3ccc4ncsc4c3)c3ccccc3n2)n1 [NK-161]
[13]
  KINOMEscan MINK1/MINK: 22
[14]
  KINOMEscan STK32A/YANK1: 0
[15]
  KINOMEscan MAP3K6/ASK2: 0
[16]
  KINOMEscan STK17B/DRAK2: 4
[17]
  KINOMEscan RPS6KA3/RSK2(Kin.Dom.1-N-terminal): 5
  KINOMEscan RPS6KA3/RSK2(Kin.Dom.2-C-terminal): 27
